Positions of bridges follow the written chain, without caps; N, C: chain ends. Non-standard residues stand in square brackets, D forms with d. Residues, ends and D or L forms follow the SMILES beside them. Groups on a side chain read outwards from the residue. *: point of attachment. εLys(α-Octadecanedioyl) = O=C(O)CCCCCCCCCCCCCCCCC(=O)N[C@@H](CCCCN*)C(=O)O; X6 = O=C(O)CCCCCCCCCCCCCCCCC(=O)N[C@@H](CCC(=O)NCCCOCCOCCOCCCN*)C(=O)O; Trp(1-CH2COOH) = N[C@@H](Cc1cn(CC(=O)O)c2ccccc12)C(=O)O; X8 = O=C(O)CCCCCCCCCCCCNC(=O)CCC(=O)NCCCOCCOCCOCCCN*; Phe(3,4,5-F3) = N[C@@H](Cc1cc(F)c(F)c(F)c1)C(=O)O; d(cisHyp) = O=C(O)[C@H]1C[C@@H](O)CN1; Hyp = O=C(O)[C@@H]1C[C@@H](O)CN1; NMeF = CN[C@@H](Cc1ccccc1)C(=O)O; X30 = O=C1NC2CSC(CCCCC(=O)*)C2N1; NHtetradecyl = CCCCCCCCCCCCCCN*; Undecanoyl = CCCCCCCCCCC(=O)*; NMeNle = CCCC[C@H](NC)C(=O)O; PEG4 = NCCOCCOCCOCCOCCC(=O)O; Tle = CC(C)(C)[C@H](N)C(=O)O; dPip = O=C(O)[C@H]1CCCCN1; NMeA = CN[C@@H](C)C(=O)O; Pra = C#CC[C@H](N)C(=O)O; Aun = NCCCCCCCCCCC(=O)O; Dab = NCC[C@H](N)C(=O)O; Dap = NC[C@H](N)C(=O)O

T1 sequence (Q9NZQ7 with tags, fused parts or gaps): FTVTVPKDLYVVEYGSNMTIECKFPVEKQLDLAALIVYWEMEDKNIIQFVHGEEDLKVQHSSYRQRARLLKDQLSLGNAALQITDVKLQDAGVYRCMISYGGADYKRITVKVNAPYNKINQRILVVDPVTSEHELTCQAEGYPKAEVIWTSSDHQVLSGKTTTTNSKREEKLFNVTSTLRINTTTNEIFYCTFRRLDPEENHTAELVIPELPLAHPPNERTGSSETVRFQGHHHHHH

The test addresses T1, PD-L1 (Homo sapiens, UniProt Q9NZQ7).
T1 construct: hPDL1(19-239)-TVMV-His; made in house; host or cells: HEK293T
The test is described as follows: PD-1/PD-L1 Homogenous Time-Resolved Fluorescence (HTRF) binding assay (PD-1-Ig/PD-L1-His). The following applies: inhibition of PD-1-Ig binding to PD-L1-TVMV-His; value given as range class; read-out: HTRF IC50. The text has this: The ability of the macrocyclic peptides of the present disclosure to bind to PD-L1 was investigated using a PD-1/PD-L1 Homogenous Time-Resolved Fluorescence (HTRF) binding assay.
Homogenous Time-Resolved Fluorescence (HTRF) Assays of Binding of Soluble PD-1 to Soluble PD-L1. Soluble PD-1 and soluble PD-L1 refers to proteins with carboxyl-end truncations that remove the transmembrane-spanning regions and are fused to heterologous sequences, specifically the Fc portion of the human immunoglobuling G sequence (Ig) or the hexahistidine epitope tag (His). All binding studies were performed in an HTRF assay buffer consisting of dPBS supplemented with 0.1% (w/v) bovine serum albumin and 0.05% (v/v) Tween-20. For the PD-1-Ig/PD-L1-His binding assay, inhibitors were pre-incubated with PD-L1-His (10 nM final) for 15 m in 4 μl of assay buffer, followed by addition of PD-1-Ig (20 nM final) in 1 μl of assay buffer and further incubation for 15m. PD-L1 fusion proteins from either human, cynomologous macaques, mouse, or other species were used. HTRF detection was achieved using europium crypate-labeled anti-Ig monoclonal antibody (1 nM final) and allophycocyanin (APC) labeled anti-His monoclonal antibody (20 nM final). Antibodies were diluted in HTRF detection buffer and 5 μl was dispensed on top of binding reaction. The reaction was allowed to equilibrate for 30 minutes and signal (665 nm/620 nm ratio) was obtained using an EnVision fluorometer. Additional binding assays were established between PD-1-Ig/PD-L2-His (20 and 5 nM, respectively), CD80-His/PD-L1-Ig (100 and 10 nM, respectively) and CD80-His/CTLA4-Ig (10 and 5 nM, respectively). Binding/competition studies between biotinylated Compound No. 71 and human PD-L1-His were performed as follows. Macrocyclic peptide inhibitors were pre-incubated with PD-L1-His (10 nM final) for 60 minutes in 4 μl of assay buffer followed by addition of biotinylated Compound No. 71 (0.5 nM final) in 1 μl of assay buffer. Binding was allowed to equilibrate for 30 minutes followed by addition of europium crypated labeled Streptavidin (2.5 pM final) and APC-labeled anti-His (20 nM final) in 5 μl of HTRF buffer. The reaction was allowed to equilibrate for 30m and signal (665 nm/620 nm ratio) was obtained using an EnVision fluorometer.
Recombinant Proteins. Carboxyl-truncated human PD-1 (amino acids 25-167) with a C-terminal human Ig epitope tag [hPD-1 (25-167)-3S-IG] and human PD-L1 (amino acids 18-239) with a C-terminal His epitope tag [hPD-L1(19-239)-tobacco vein mottling virus protease cleavage site (TVMV)-His] were expressed in HEK293T cells and purified sequentially by recombinant Protein A affinity chromatography and size exclusion chromatography. Human PD-L2-His (Sino Biologicals), CD80-His (Sino Biologicals), CTLA4-Ig (RnD Systems) were all obtained through commercial sources.
As to `CCCC[C@H]1C(=O)N(C)[C@@H](CCCC)C(=O)N[C@@H](CC(C)C)C(=O)N[C@H](C(=O)NCC(=O)N[C@@H](CCC(=O)NCCCC[C@H](NC(=O)CCCCCCCCCCCCCCCCC(=O)O)C(=O)O)C(=O)O)CSCC(=O)N[C@@H](Cc2ccc(O)cc2)C(=O)N(C)[C@@H](C)C(=O)N[C@@H](CC(N)=O)C(=O)N2CCC[C@H]2C(=O)N[C@@H](CN)C(=O)N[C@@H](CC(C)C)C(=O)N2C[C@H](O)C[C@H]2C(=O)N[C@@H](Cc2c[nH]c3ccccc23)C(=O)N[C@@H](CCN)C(=O)N[C@@H](Cc2cn(CC(=O)O)c3ccccc23)C(=O)N1C` [Example 11177] ({CH2CO}-Y[NMeA]NP[Dap]L[Hyp]W[Dab][Trp(1-CH2COOH)][NMeNle][NMeNle]LCGE(εLys(α-Octadecanedioyl))-OH; thioether N-14), the IC50 is 100 to 1600 nM.
Take `CCCCCCCCCCC(=O)NCCCC[C@H](NC(=O)[C@H](CC(=O)O)NC(=O)CNC(=O)[C@@H]1CSCC(=O)N[C@@H](Cc2ccc(O)cc2)C(=O)N(C)[C@@H](C)C(=O)N[C@@H](CC(N)=O)C(=O)N2CCC[C@H]2C(=O)N[C@@H](CCN)C(=O)N[C@@H](CC(C)C)C(=O)N2C[C@H](O)C[C@H]2C(=O)N[C@@H](Cc2c[nH]c3ccccc23)C(=O)N[C@@H](CO)C(=O)N[C@@H](Cc2c[nH]c3ccccc23)C(=O)N(C)[C@@H](CCCC)C(=O)N(C)[C@@H](CCCC)C(=O)N[C@@H](CCCNC(=N)N)C(=O)N1)C(N)=O` [Example 11005] ({CH2CO}-Y[NMeA]NP[Dab]L[Hyp]WSW[NMeNle][NMeNle]RCGDK(Undecanoyl)-NH2; thioether N-14): the IC50 lay within 10 to 99 nM.
With `CCCCCCCCCCC(=O)NCCCC[C@H](NC(=O)[C@H](CC(=O)O)NC(=O)[C@@H]1CSCC(=O)N[C@@H](Cc2ccc(O)cc2)C(=O)N(C)[C@@H](C)C(=O)N[C@@H](CC(N)=O)C(=O)N2CCC[C@H]2C(=O)N[C@@H](Cc2cnc[nH]2)C(=O)N[C@@H](CCC(=O)O)C(=O)N2C[C@H](O)C[C@H]2C(=O)N[C@@H](Cc2c[nH]c3ccccc23)C(=O)N[C@@H](CCN)C(=O)N[C@@H](Cc2cn(CC(=O)O)c3ccccc23)C(=O)N(C)[C@@H](CCCC)C(=O)N(C)[C@@H](CCCC)C(=O)N[C@@H](CC(C)C)C(=O)N1)C(N)=O` [Example 11011] ({CH2CO}-Y[NMeA]NPHE[Hyp]W[Dab][Trp(1-CH2COOH)][NMeNle][NMeNle]LCDK(Undecanoyl)-NH2; thioether N-14), the IC50 is 10 to 99 nM.
For the molecule `CCCC[C@H]1C(=O)N(C)[C@@H](CCCC)C(=O)N[C@@H](CC(C)C)C(=O)N[C@H](C(=O)NCCCCCCCCCCC(=O)O)CSCC(=O)N[C@@H](Cc2ccc(O)cc2)C(=O)N(C)[C@@H](C)C(=O)N[C@@H](CC(N)=O)C(=O)N2CCC[C@H]2C(=O)N[C@@H](CO)C(=O)N[C@@H](CCC(N)=O)C(=O)N2C[C@H](O)C[C@H]2C(=O)N[C@@H](Cc2c[nH]c3ccccc23)C(=O)N[C@@H](CO)C(=O)N[C@@H](Cc2cn(CC(=O)O)c3ccccc23)C(=O)N1C` [Example 11082] ({CH2CO}-Y[NMeA]NPSQ[Hyp]WS[Trp(1-CH2COOH)][NMeNle][NMeNle]LC[Aun]-OH; thioether N-14), the concentration for half-maximal inhibition (IC50) was in the range of 10 to 99 nM.
For `CCCC[C@H]1C(=O)N(C)[C@@H](CCCC)C(=O)N[C@@H](CC(C)C)C(=O)N[C@H](C(=O)NCC(=O)N[C@@H](CCC(=O)NCCCOCCOCCOCCCNC(=O)CC[C@H](NC(=O)CCCCCCCCCCCCCCCCC(=O)O)C(=O)O)C(=O)O)CSCC(=O)N[C@@H](Cc2ccc(O)cc2)C(=O)N(C)[C@@H](C)C(=O)N[C@@H](CC(N)=O)C(=O)N2CCC[C@H]2C(=O)N[C@@H](CN)C(=O)N[C@@H](CC(C)C)C(=O)N2C[C@H](O)C[C@@H]2C(=O)N[C@@H](Cc2c[nH]c3ccccc23)C(=O)N[C@@H](CCN)C(=O)N[C@@H](Cc2cn(CC(=O)O)c3ccccc23)C(=O)N1C` [Example 11163] ({CH2CO}-Y[NMeA]NP[Dap]L[d(cisHyp)]W[Dab][Trp(1-CH2COOH)][NMeNle][NMeNle]LCGE(X6)-OH; thioether N-14) the value was 0.3 to 9.9 nM; for `CCCCCCCCCCCCCCNC(=O)CNC(=O)CNC(=O)[C@@H]1CSCC(=O)N[C@@H](Cc2ccc(O)cc2)C(=O)N(C)[C@@H](C)C(=O)N[C@@H](CC(N)=O)C(=O)N2CCC[C@H]2C(=O)N[C@@H](CCN)C(=O)N[C@@H](CC(C)C)C(=O)N2C[C@H](O)C[C@H]2C(=O)N[C@@H](Cc2c[nH]c3ccccc23)C(=O)N[C@@H](C(C)(C)C)C(=O)N[C@@H](Cc2c[nH]c3ccccc23)C(=O)N(C)[C@@H](CCCC)C(=O)N(C)[C@@H](CCCC)C(=O)N[C@@H](CCCNC(=N)N)C(=O)N1` [Example 11107] ({CH2CO}-Y[NMeA]NP[Dab]L[Hyp]W[Tle]W[NMeNle][NMeNle]RCGG-NHtetradecyl; thioether N-14), 100 to 1600 nM.
Regarding `C#CC[C@H](NC(=O)CNC(=O)[C@@H]1CSCC(=O)N[C@@H](Cc2ccc(O)cc2)C(=O)N(C)[C@@H](C)C(=O)N[C@@H](CC(N)=O)C(=O)N2CCC[C@H]2C(=O)N[C@@H](CN)C(=O)N[C@@H](CC(C)C)C(=O)N2C[C@H](O)C[C@H]2C(=O)N[C@@H](Cc2c[nH]c3ccccc23)C(=O)N[C@@H](CCN)C(=O)N[C@@H](Cc2cn(CC(=O)O)c3ccccc23)C(=O)N(C)[C@@H](CCCC)C(=O)N(C)[C@@H](CCCC)C(=O)N[C@@H](CC(C)C)C(=O)N1)C(N)=O` [INT 1300W] ({CH2CO}-Y[NMeA]NP[Dap]L[Hyp]W[Dab][Trp(1-CH2COOH)][NMeNle][NMeNle]LCG[Pra]-NH2; thioether N-14), the 50% inhibitory concentration (IC50) was 10 to 99 nM.
Take `CCCC[C@H]1C(=O)N(C)[C@@H](CCCC)C(=O)N[C@@H](CC(C)C)C(=O)N[C@H](C(=O)NCCCOCCOCCOCCCNC(=O)CCC(=O)NCCCCCCCCCCCCC(=O)O)CSCC(=O)N[C@@H](Cc2ccc(O)cc2)C(=O)N(C)[C@@H](C)C(=O)N[C@@H](CC(=O)O)C(=O)N2CCC[C@H]2C(=O)N[C@@H](Cc2cnc[nH]2)C(=O)N[C@@H](CCCCN)C(=O)N2C[C@H](O)C[C@H]2C(=O)N[C@@H](Cc2c[nH]c3ccccc23)C(=O)N[C@@H](CCCCN)C(=O)N[C@@H](Cc2cn(CC(=O)O)c3ccccc23)C(=O)N1C` [Example 11219] ({CH2CO}-Y[NMeA]DPHK[Hyp]WK[Trp(1-CH2COOH)][NMeNle][NMeNle]LC-X8; thioether N-14): the IC50 was 10 to 99 nM.
Turning to `CCCC[C@H]1C(=O)N2C[C@H](O)C[C@@H]2C(=O)N[C@@H](CC(=O)O)C(=O)N[C@@H](C(C)C)C(=O)N(C)[C@@H](Cc2ccccc2)C(=O)N[C@@H](Cc2ccc(O)cc2)C(=O)N2CCCC[C@@H]2C(=O)N[C@@H](Cc2c[nH]c3ccccc23)C(=O)N[C@@H](Cc2ccc(O)cc2)C(=O)N[C@@H](CC(C)C)C(=O)N[C@H](C(=O)NCC(=O)NCC(=O)NCC(=O)N[C@@H](CCCCNC(=O)CCOCCOCCOCCOCCNC(=O)CCCCC2SCC3NC(=O)NC32)C(N)=O)CSCC(=O)N[C@@H](Cc2cc(F)c(F)c(F)c2)C(=O)N(C)[C@@H](Cc2ccccc2)C(=O)N1C` (stereo partly shown) [Example 3626] ({CH2CO}-[Phe(3,4,5-F3)][NMeF][NMeNle][d(cisHyp)]DV[NMeF]Y[dPip]WYLCGGGK([PEG4-X30])-NH2; thioether N-13), the IC50 lay in the range of 0.3 to 9.9 nM.
For `CCCC[C@H]1C(=O)N(C)[C@@H](CCCC)C(=O)N[C@@H](CC(C)C)C(=O)N[C@H](C(=O)NCC(=O)N[C@H](CC(=O)O)C(=O)NCC(=O)NCCCCCCCCCCC(=O)O)CSCC(=O)N[C@@H](Cc2ccc(O)cc2)C(=O)N(C)[C@@H](C)C(=O)N[C@@H](CC(N)=O)C(=O)N2CCC[C@H]2C(=O)N[C@@H](CN)C(=O)N[C@@H](CC(C)C)C(=O)N2C[C@H](O)C[C@H]2C(=O)N[C@@H](Cc2c[nH]c3ccccc23)C(=O)N[C@@H](CCN)C(=O)N[C@@H](Cc2cn(CC(=O)O)c3ccccc23)C(=O)N1C` [Example 11100] ({CH2CO}-Y[NMeA]NP[Dap]L[Hyp]W[Dab][Trp(1-CH2COOH)][NMeNle][NMeNle]LCG[dD]G[Aun]-OH; thioether N-14) the value was 10 to 99 nM.

Usually IC50 stands for the concentration that gives 50% inhibition.

These data come from patent US10633419B2, “Immunomodulators” (BRISTOL-MYERS SQUIBB COMPANY, priority 2014, dated 2020).
